Data on 22 compounds can be found in EP3623369A1, “NOVEL MORPHOLINYL AMINE COMPOUNDS FOR THE TREATMENT OF AUTOIMMUNE DISEASE” (F. Hoffmann-La Roche AG, priority 2018, dated 2020).

The experiment has as its target T1, hTLR7 (Homo sapiens, UniProt Q9NYK1).
T1 sequence (Q9NYK1 27-1049): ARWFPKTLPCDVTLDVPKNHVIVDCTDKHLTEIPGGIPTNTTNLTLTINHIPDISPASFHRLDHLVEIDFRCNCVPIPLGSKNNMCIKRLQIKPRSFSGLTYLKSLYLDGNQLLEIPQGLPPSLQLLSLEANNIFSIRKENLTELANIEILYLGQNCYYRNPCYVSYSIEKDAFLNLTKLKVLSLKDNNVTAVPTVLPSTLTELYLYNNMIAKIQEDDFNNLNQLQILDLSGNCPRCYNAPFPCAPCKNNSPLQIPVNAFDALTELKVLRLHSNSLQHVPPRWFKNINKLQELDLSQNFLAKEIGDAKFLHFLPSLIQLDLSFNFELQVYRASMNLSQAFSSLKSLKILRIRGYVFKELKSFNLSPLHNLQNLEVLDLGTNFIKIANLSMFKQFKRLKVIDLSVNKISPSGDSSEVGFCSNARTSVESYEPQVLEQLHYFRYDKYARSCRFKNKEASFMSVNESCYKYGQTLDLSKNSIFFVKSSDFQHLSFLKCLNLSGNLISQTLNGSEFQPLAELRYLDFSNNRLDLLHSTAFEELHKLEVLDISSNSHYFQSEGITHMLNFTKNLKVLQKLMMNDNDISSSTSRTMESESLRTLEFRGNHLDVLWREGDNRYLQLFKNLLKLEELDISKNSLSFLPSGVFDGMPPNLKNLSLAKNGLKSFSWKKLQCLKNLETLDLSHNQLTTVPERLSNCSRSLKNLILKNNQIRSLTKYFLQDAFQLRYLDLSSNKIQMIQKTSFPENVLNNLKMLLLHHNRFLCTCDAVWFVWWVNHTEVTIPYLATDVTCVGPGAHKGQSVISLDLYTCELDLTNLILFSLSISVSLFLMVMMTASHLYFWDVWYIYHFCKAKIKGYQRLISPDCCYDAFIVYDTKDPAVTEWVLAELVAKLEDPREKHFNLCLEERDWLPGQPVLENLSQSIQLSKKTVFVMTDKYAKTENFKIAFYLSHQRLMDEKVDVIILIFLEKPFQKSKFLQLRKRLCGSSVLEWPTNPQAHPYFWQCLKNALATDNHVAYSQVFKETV
The experiment can be described thus: HEK293-Blue-hTLR-7 cells assay (SEAP reporter, R848 stimulation). The format is cell-based. The note with it: HEK293-Blue-hTLR7 cells, R848, 20 hrs; 0.003 is the lowest tested concentration; read-out: HEK/hTLR7 IC50. On the procedure:
The following tests were carried out in order to determine the activity of the compounds of formula (I) or (Ia) in HEK293-Blue-hTLR-7/8/9 cells assay.
HEK293-Blue-hTLR-7 cells assay:
A stable HEK293-Blue-hTLR-7 cell line was purchased from InvivoGen (Cat.#: hkb-htlr7, San Diego, California, USA). These cells were originally designed for studying the stimulation of human TLR7 by monitoring the activation of NF-κB. A SEAP (secreted embryonic alkaline phosphatase) reporter gene was placed under the control of the IFN-β minimal promoter fused to five NF-κB and AP-1-binding sites. The SEAP was induced by activating NF-κB and AP-1 via stimulating HEK-Blue hTLR7 cells with TLR7 ligands. Therefore the reporter expression was declined by TLR7 antagonist under the stimulation of a ligand, such as R848 (Resiquimod), for incubation of 20 hrs. The cell culture supernatant SEAP reporter activity was determined using QUANTI-Blue™ kit (Cat.#: rep-qb1, Invivogen, San Diego, Ca, USA) at a wavelength of 640 nm, a detection medium that turns purple or blue in the presence of alkaline phosphatase.
HEK293-Blue-hTLR7 cells were incubated at a density of 250,000∼450,000 cells/mL in a volume of 170 µL in a 96-well plate in Dulbecco's Modified Eagle's medium (DMEM) containing 4.5 g/L glucose, 50 U/mL penicillin, […], […], 2 mM L-glutamine, 10% (v/v) heat-inactivated fetal bovine serum with addition of 20 µL test compound in a serial dilution in the presence of final DMSO at 1% and 10 µL of 20uM R848 in above DMEM, perform incubation under 37 °C in a CO2 incubator for 20 hrs. Then 20 µL of the supernatant from each well was incubated with 180 µL Quanti-blue substrate solution at 37 °C for 2 hrs and the absorbance was read at 620∼655 nm using a spectrophotometer. The signalling pathway that TLR7 activation leads to downstream NF-κB activation has been widely accepted, and therefore similar reporter assay was modified for evaluating TLR7 antagonist.
Consider “3-fluoro-4-[(2R,6S)-2-methyl-6-[(5-piperazin-1-ylisoindolin-2-yl)methyl]morpholin-4-yl]pyrazolo[1,5-a]pyridine-7-carbonitrile [Example 7]”, for which the IC50 worked out at 0.042 µM.

Consider “5-[(2S,6R)-2-[[5-[3-(hydroxymethyl)piperazin-1-yl]isoindolin-2-yl]methyl]-6-methyl-morpholin-4-yl]quinoline-8-carbonitrile [Example 85]”, for which the IC50 amounted to 0.02 µM.

In the case of `C[C@@H]1CN(c2ccc3c(c2)CN(C[C@H]2CN(c4ccc(C#N)c5ncccc45)C[C@@H](C)O2)C3)C[C@@H](C)N1` (mixture of isomers) [Example 57, Trans-5-[(2R,6S)-2-methyl-6-[[5-[3,5-dimethylpiperazin-1-yl]isoindolin-2-yl]methyl]morpholin-4-yl]quinoline-8-carbonitrile], the IC50 turned out to be 0.125 µM.

`C[C@@H]1CN(c2ccc(C#N)c3ncccc23)C[C@H](CNCc2ccccc2)O1` [ER-886509, reference compound]: the IC50 is 0.088 µM.

In the case of `C[C@@H]1CN(c2ccc(C#N)n3nccc23)C[C@H](CN2Cc3ccc(N4CCNCC4)cc3C2)O1` [Example 4, 4-[(2R,6S)-2-methyl-6-[(5-piperazin-1-ylisoindolin-2-yl)methyl]morpholin-4-yl]pyrazolo[1,5-a]pyridine-7-carbonitrile], the IC50 was 0.056 µM.

Turning to `C[C@@H]1CN(c2ccc(C#N)n3nccc23)C[C@H](CN2Cc3ccc(C4CCNCC4)cc3C2)O1` [Example 8, 4-[(2R,6S)-2-methyl-6-[[5-(4-piperidyl)isoindolin-2-yl]methyl]morpholin-4-yl]pyrazolo[1,5-a]pyridine-7-carbonitrile], the IC50 came to 0.206 µM.

Take `C[C@@H]1CN(c2ccc(C#N)n3nccc23)C[C@H](CN2Cc3ccc(C4CCNC4)cc3C2)O1` (stereo partly drawn) [Example 9, 4-[(2R,6S)-2-methyl-6-[(5-pyrrolidin-3-ylisoindolin-2-yl)methyl]morpholin-4-yl]pyrazolo[1,5-a]pyridine-7-carbonitrile]: the IC50 turned out to be 0.195 µM.

For `C[C@@H]1CN(c2ccc(C#N)n3nccc23)C[C@H](CN2CCc3cc(N4CCNCC4)ccc3C2)O1` [Example 10, 4-[(2R,6S)-2-methyl-6-[(6-piperazin-1-yl-3,4-dihydro-1H-isoquinolin-2-yl)methyl]morpholin-4-yl]pyrazolo[1,5-a]pyridine-7-carbonitrile], the IC50 stood at 0.081 µM.

Turning to `C[C@@H]1CN(c2ccc(C#N)n3nccc23)C[C@H](CN2CCc3ccc(N4CCNCC4)cc3C2)O1` [Example 11, 4-[(2R,6S)-2-methyl-6-[(7-piperazin-1-yl-3,4-dihydro-1H-isoquinolin-2-yl)methyl]morpholin-4-yl]pyrazolo[1,5-a]pyridine-7-carbonitrile], the IC50 was found to be 0.192 µM.

Take `C[C@@H]1CN(c2ccc(C#N)c3nccnc23)C[C@H](CN2Cc3ccc(N4CCNCC4)cc3C2)O1` [Example 12, 8-[(2R,6S)-2-methyl-6-[(5-piperazin-1-ylisoindolin-2-yl)methyl]morpholin-4-yl]quinoxaline-5-carbonitrile]: the IC50 was < 0.003 µM.

As for `C[C@@H]1CN(c2ccc(C#N)c3nccnc23)C[C@H](CN2CCc3cc(N4CCNCC4)ccc3C2)O1` [Example 13, 8-[(2R,6S)-2-methyl-6-[(6-piperazin-1-yl-3,4-dihydro-1H-isoquinolin-2-yl)methyl]morpholin-4-yl]quinoxaline-5-carbonitrile], the IC50 worked out at 0.003 µM.

For `C[C@@H]1CN(c2ccc(C#N)n3ncc(F)c23)C[C@H](CN2CCc3cc(N4CCNCC4)ccc3C2)O1` [Example 14, 3-fluoro-4-[(2R,6S)-2-methyl-6-[(6-piperazin-1-yl-3,4-dihydro-1H-isoquinolin-2-yl)methyl]morpholin-4-yl]pyrazolo[1,5-a]pyridine-7-carbonitrile], the IC50 stood at 0.021 µM.

For the compound `C[C@@H]1CN(c2ccc(C#N)n3nccc23)C[C@H](CN2CCc3cc(N4CCN(C)CC4)ccc3C2)O1` [Example 15, 4-[(2R,6S)-2-methyl-6-[[6-(4-methylpiperazin-1-yl)-3,4-dihydro-1H-isoquinolin-2-yl]methyl]morpholin-4-yl]pyrazolo[1,5-a]pyridine-7-carbonitrile], the IC50 came to 0.037 µM.

For `C[C@@H]1CN(c2ccc(C#N)n3nccc23)C[C@H](CNCc2ccc(N3CCNCC3)cc2)O1` [Example 16, 4-[(2R,6S)-2-methyl-6-[[(4-piperazin-1-ylphenyl)methylamino]methyl]morpholin-4-yl]pyrazolo[1,5-a]pyridine-7-carbonitrile], the IC50 stood at 0.104 µM.

`C[C@@H]1CN(c2ccc(C#N)n3nccc23)C[C@H](CN2Cc3ccc(N4CCN(C)CC4)cc3C2)O1` [Example 17, 4-[(2R,6S)-2-methyl-6-[[5-(4-methylpiperazin-1-yl)isoindolin-2-yl]methyl]morpholin-4-yl]pyrazolo[1,5-a]pyridine-7-carbonitrile]: the IC50 worked out at 0.065 µM.

In the case of `C[C@@H]1CN(c2ccc(C#N)n3nccc23)C[C@H](CN2Cc3cc(N4CCNCC4)cnc3C2)O1` [Example 18, 4-[(2R,6S)-2-methyl-6-[(3-piperazin-1-yl-5,7-dihydropyrrolo[3,4-b]pyridin-6-yl)methyl]morpholin-4-yl]pyrazolo[1,5-a]pyridine-7-carbonitrile], the IC50 came to 0.068 µM.

As for `C[C@@H]1CN(c2ccc(C#N)c3ncccc23)C[C@H](CN2CCc3cc(N4CCNCC4)ccc3C2)O1` [Example 19, 5-[(2R,6S)-2-methyl-6-[(6-piperazin-1-yl-3,4-dihydro-1H-isoquinolin-2-yl)methyl]morpholin-4-yl]quinoline-8-carbonitrile], the IC50 came out at 0.011 µM.

Regarding `C[C@@H]1CN(c2ccc(C#N)c3ncccc23)C[C@H](CN2Cc3cc(N4CCNCC4)cnc3C2)O1` [Example 20, 5-[(2R,6S)-2-methyl-6-[(3-piperazin-1-yl-5,7-dihydropyrrolo[3,4-b]pyridin-6-yl)methyl]morpholin-4-yl]quinoline-8-carbonitrile], the IC50 turned out to be 0.014 µM.

`C[C@@H]1CN(c2ccc(C#N)c3ncccc23)C[C@H](CN2Cc3ccc(N4CCNCC4)cc3C2)O1` [Example 21, 5-[(2R,6S)-2-methyl-6-[(5-piperazin-1-ylisoindolin-2-yl)methyl]morpholin-4-yl]quinoline-8-carbonitrile]: the IC50 amounted to 0.009 µM.

In the case of `C[C@@H]1CN(c2ccc(C#N)c3ncsc23)C[C@H](CN2Cc3ccc(N4CCNCC4)cc3C2)O1` [Example 23, 7-[(2R,6S)-2-methyl-6-[(5-piperazin-1-ylisoindolin-2-yl)methyl]morpholin-4-yl]-1,3-benzothiazole-4-carbonitrile], the IC50 stood at 0.006 µM.

For `C[C@@H]1CN(c2ccc(C#N)c3ncsc23)C[C@H](CN2CCc3cc(N4CCNCC4)ccc3C2)O1` [Example 24, 7-[(2R,6S)-2-methyl-6-[(6-piperazin-1-yl-3,4-dihydro-1H-isoquinolin-2-yl)methyl]morpholin-4-yl]-1,3-benzothiazole-4-carbonitrile], the IC50 worked out at 0.009 µM.

On to `C[C@@H]1CN(c2ccc(C#N)c3ncsc23)C[C@H](CN2Cc3cc(N4CCNCC4)cnc3C2)O1` [Example 25, 7-[(2R,6S)-2-methyl-6-[(3-piperazin-1-yl-5,7-dihydropyrrolo[3,4-b]pyridin-6-yl)methyl]morpholin-4-yl]-1,3-benzothiazole-4-carbonitrile], for which the IC50 was 0.011 µM.
